The structures appear in SMILES notation.

A short description of this data set: RP, Waters ACQUITY UPLC BEH C18, 100 × 1 mm, 1.7 µm, 50 °C, 0.3 mL/min, estimated dead time 0.17 min; A: water + 0.1% formic acid + 20 mM ammonium formate; B: methanol + 0.1% formic acid + 20 mM ammonium formate; gradient (min/%B) 0/0 15/100 21/100 22/0 30/0. The settings on record: stereoisomer not certain.
On to `CC1CN(C2CCCCCCCCCCC2)CC(C)O1` (centres undefined) [Dodemorph], for which the LC retention time is 13.5 min. For the compound `CC=C(C)C(=O)OC1CC[N+]2([O-])CC=C(COC(=O)C(O)(C(C)O)C(C)(C)O)C12` (centres undefined) [Echimidine N-oxide], the LC retention time was 9.37 min. As to `CC12CCC3C(=CCc4cc(O)ccc43)C1CCC2=O` (centres undefined) [Equilin], the LC retention time was 13.8 min. As for `CCCCCCCCC=CCCCCCCCCCCCC(N)=O` [Erucamide], the LC retention time is 19.6 min. As for `O=P(O)(O)CCCl` [Ethephon], the LC retention time was 2.01 min.

In the case of `CC1(C)C(=O)Oc2ccc(OS(C)(=O)=O)cc21` [Ethofumesate-2-keto], the LC retention time was 12 min. For the compound `CCCSP(=O)(OCC)SCCC` [Ethoprophos], the LC retention time is 15 min. On to `OC(c1ccc(Cl)cc1)(c1cncnc1)c1ccccc1Cl` (centres undefined) [Fenarimol], for which the LC retention time is 14.9 min. Consider `CC(C)(C)c1ccc(CCOc2ncnc3ccccc23)cc1` [Fenazaquin], for which the LC retention time is 17.8 min. For the compound `CC(Cc1ccc(C(C)(C)C)cc1)CN1CCCCC1` (centres undefined) [Fenpropidin], the LC retention time was 13.8 min. In the case of `COc1cc(OC)nc(NC(=O)NS(=O)(=O)c2ncccc2C(F)(F)F)n1` [Flazasulfuron], the LC retention time was 13.4 min. The figure for `Cc1cc(C(F)(C(F)(F)F)C(F)(F)F)ccc1NC(=O)c1cccc(I)c1C(=O)NC(C)(C)CS(C)(=O)=O` [Flubendiamide] is 15.4 min; for `O=C(O)c1ccccc1Nc1cccc(C(F)(F)F)c1` [Flufenamic acid] it is 16.2 min. With `CC(=O)OCC(=O)C12OC(C)(C)OC1CC1C3CC(F)C4=CC(=O)C=CC4(C)C3(F)C(O)CC12C` (centres undefined) [Fluocinonide], the LC retention time was 14.6 min. The figure for `O=C(NCc1ncc(C(F)(F)F)cc1Cl)c1c(Cl)cccc1Cl` [Fluopicolide] is 14.4 min; for `CNCCC(Oc1ccc(C(F)(F)F)cc1)c1ccccc1` (centres undefined) [Fluoxetine] it is 13.2 min. Regarding `O=C1C(Cl)C(CCl)CN1c1cccc(C(F)(F)F)c1` (centres undefined) [Flurochloridone], the LC retention time is 14.6 min. Regarding `COc1ccc(-c2coc3cc(O)ccc3c2=O)cc1` [Formononetin], the LC retention time is 13.2 min.

With `O=C(O)CC1(C(=O)O)CCCCC1` [Gabapentin Related Compound E], the LC retention time is 9.9 min. In the case of `C=CC12CN(C)C3C4COC(CC41)C1(C(=O)Nc4ccccc41)C32` (centres undefined) [Gelsemine], the LC retention time is 7.38 min. `CCCCCC(=O)OC1(C(C)=O)CCC2C3CCC4=CC(=O)CCC4C3CCC21C` (centres undefined) [Gestonorone capronate]: the LC retention time was 16.7 min. `CCCCCCCCCCCCCCCCCC(=O)OCC(O)CO` (centres undefined) [Glyceryl monostearate]: the LC retention time is 19.2 min. Turning to `CCCCCCCCCCCCCCCC(=O)OCC(O)CO` (centres undefined) [Glyceryl-1-monopalmitate], the LC retention time was 18.6 min. Take `C=CC1CNC(=S)O1` (centres undefined) [Goitrin]: the LC retention time was 5 min. Turning to `COP(=O)(OC)OC1=C(Cl)C2C=CCC12` (centres undefined) [Heptenophos], the LC retention time was 13.3 min. The figure for `CCCCC(O)(Cn1cncn1)c1ccc(Cl)cc1Cl` (centres undefined) [Hexaconazole] is 15.9 min. For `O=C(O)CNC(=O)c1ccccc1` [Hippuric_acid], the LC retention time was 7.2 min. On to `NC(Cc1cnc[nH]1)C(=O)N1CCCC1C(=O)O` (centres undefined) [His-Pro], for which the LC retention time was 2.6 min.

Regarding `CN(C)CCc1ccc(O)cc1` [Hordenine], the LC retention time was 3.04 min.

In the case of `CC(=O)OCC(=O)C1(O)CCC2C3CCC4=CC(=O)CCC4(C)C3C(O)CC21C` (centres undefined) [Hydrocortisonacetate], the LC retention time was 13.4 min. Take `CC(=O)C1(C)CC2=C(CCCC2(C)C)CC1C` (centres undefined) [ISO E Super]: the LC retention time is 17.7 min. The same measure for `O=NNC1=NCCN1Cc1ccc(Cl)nc1` [Imidacloprid-nitrosoimine]: 7.84 min; for `O=[N+]([O-])Nc1nccn1Cc1ccc(Cl)nc1` [Imidacloprid-olefin]: 7.92 min.

Take `C1=Cc2ccccc2Nc2ccccc21` [Iminostilbene]: the LC retention time is 14.5 min. As for `c1ccc2[nH]ncc2c1` [Indazole], the LC retention time is 4.3 min. As for `O=C(O)c1cc2ccccc2[nH]1` [Indole-2-carboxylic acid/Indole-3-carboxylic acid], the LC retention time was 7.8 min. On to `COP(N)(=S)Oc1ccccc1C(=O)OC(C)C` (centres undefined) [Isocarbophos], for which the LC retention time is 13.2 min. On to `CCOP(=S)(NC(C)C)Oc1ccccc1C(=O)OC(C)C` (centres undefined) [Isofenphos (-ethyl)], for which the LC retention time is 16 min.

For the compound `COP(=S)(NC(C)C)Oc1ccccc1C(=O)OC(C)C` (centres undefined) [Isofenphos-methyl], the LC retention time is 15.5 min. In the case of `CC1(C)CC(N)CC(C)(CN)C1` (centres undefined) [Isophorone diamine], the LC retention time was 2.02 min. For the compound `O=C(O)c1cccc(C(=O)O)c1` [Isophthalic acid], the LC retention time is 8.71 min. `COc1c2ccoc2c(OC)c2oc(=O)ccc12` [Isopimpinellin]: the LC retention time is 12.2 min.

On to `COC1CC(OC2C(C)OC(OC3C(C)=CCC4CC(CC5(CCC(C)C(C(C)C)O5)O4)OC(=O)C4C=C(C)C(O)C5OCC(=CC=CC3C)C45O)CC2OC)OC(C)C1O` (centres undefined) [Ivermectin B1b], for which the LC retention time was 5.5 min.

`O=C(O)c1cc(=O)c2ccccc2[nH]1` [Kynurenic acid]: the LC retention time is 6.9 min.

Regarding `O=C1CC[C@@H](C(=O)O)N1` [L-Pyroglutamic acid], the LC retention time is 7.7 min. Consider `N[C@@H](Cc1ccc(O)cc1)C(=O)O` [L-Tyrosine], for which the LC retention time is 6.5 min.

For `O=c1cc(-c2ccc(O)c(O)c2)oc2cc(OC3OC(CO)C(O)C(O)C3O)cc(O)c12` (centres undefined) [Luteolin 7-glucoside], the LC retention time is 9.71 min. As to `CCOC(=O)CC(SP(=S)(OC)OC)C(=O)OCC` (centres undefined) [Malathion], the LC retention time is 14.3 min. In the case of `O=c1ccc(=O)[nH][nH]1` [Maleic acid hydazide], the LC retention time is 16.4 min. In the case of `C#CCOc1ccc(CCNC(=O)C(OCC#C)c2ccc(Cl)cc2)cc1OC` (centres undefined) [Mandipropamid], the LC retention time is 14.3 min. On to `COc1ccc2[nH]cc(CCNC(C)=O)c2c1` [Melatonin], for which the LC retention time is 9.71 min.

In the case of `Cc1ccccc1C(=O)Nc1cccc(OC(C)C)c1` [Mepronil], the LC retention time was 14.4 min. In the case of `COC(=O)c1ccc(CNS(C)(=O)=O)cc1S(=O)(=O)NC(=O)Nc1nc(OC)cc(OC)n1` [Mesosulfuron-methyl], the LC retention time is 12.8 min.

Take `Cc1cccc(C)c1N(Cn1cccn1)C(=O)C(=O)O` [Metazachlor BH 479-4 (Metazachlor oxanilic acid (OA))]: the LC retention time was 9.29 min. For the compound `Cc1cccc(C)c1NC(=O)CCl` [Metazachlor-N-dealkylation], the LC retention time was 10.2 min. Consider `Cc1cccc(C)c1N(Cn1cccn1)C(=O)CO` [Metazachlor-OH-deschloro], for which the LC retention time was 11.1 min. As for `COC(=O)C(C)=COP(=S)(OC)OC` [Methacrifos], the LC retention time is 12.1 min. As to `COc1nn(CSP(=S)(OC)OC)c(=O)s1` [Methidation], the LC retention time is 13.2 min. The figure for `CNC(=O)Oc1cc(C)c(S(C)=O)c(C)c1` (centres undefined) [Methiocarb-sulfoxide] is 9.18 min. Turning to `Cn1ncc(N)c(Cl)c1=O` [Methyl-Desphenyl-Chloridazon], the LC retention time was 5.18 min. With `CCc1cccc(C)c1NC(=O)CCl` [Metolachlor-N-dealkylation], the LC retention time was 13.7 min. The same measure for `CC(C)(C)c1n[nH]c(=O)n(N)c1=O` [Metribuzin-diketo]: 9.82 min; for `CN(C)c1ccc(O)c2c1CC1CC3C(N(C)C)C(=O)C(C(N)=O)=C(O)C3(O)C(=O)C1=C2O` (centres undefined) [Minocyclin]: 8.3 min. On to `O=C(NCCN1CCOCC1)c1ccc(Cl)cc1` [Moclobemide], for which the LC retention time was 8.18 min.

Consider `CCCC(C)(C)C(=O)Nc1ccc(Cl)cc1` [Monalide], for which the LC retention time was 15 min. The same measure for `CON(C)C(=O)Nc1ccc(Cl)cc1` [Monolinuron]: 12.2 min; for `CN(C)c1nc2c(ncn2C2OC(CO)C(O)C2O)c(=O)[nH]1` (centres undefined) [N2_N2-Dimethylguanosine]: 6.3 min. The same measure for `CC(O)C(NC(=O)Nc1ncnc2c1ncn2C1OC(CO)C(O)C1O)C(=O)O` (centres undefined) [N6-Threonylcarbamoyladenosine]: 7.6 min; for `CN(C)c1ccccc1` [N,N-Dimethylaniline]: 2.5 min. The figure for `CCNC(=O)c1cccc(C)c1` [N-Ethyl-3-methylbenzamide] is 10.7 min; for `CC=C(C)C(=O)NCC(=O)O` [N-Tigloylglycine] it is 6.4 min.

Take `CCOc1ccc2ccccc2c1C(=O)NC1C(=O)N2C1SC(C)(C)C2C(=O)O` (centres undefined) [Nafcillin]: the LC retention time is 13.6 min. On to `CCN(CC)CCOC(=O)C(Cc1cccc2ccccc12)CC1CCCO1` (centres undefined) [Nafronyl], for which the LC retention time is 16 min. As for `O=C1CCC2(O)C3Cc4ccc(O)c5c4C2(CCN3CC2CC2)C1O5` (centres undefined) [Naltrexon], the LC retention time is 5.88 min.

Consider `CCCCC(CC)COC(=O)C=Cc1ccc(OC)cc1` (centres undefined) [Octyl-methoxycinnamate], for which the LC retention time was 18.2 min. As for `CN(C)CCC=C1c2ccccc2COc2ccc(CC(=O)O)cc21` [Olopatadine], the LC retention time was 11.5 min. Consider `CCCCCCCCCCCC(CC1OC(=O)C1CCCCCC)OC(=O)C(CC(C)C)NC=O` (centres undefined) [Orlistat], for which the LC retention time was 19 min. For `CCOC(=O)C1=CC(OC(CC)CC)C(NC(C)=O)C(N)C1` (centres undefined) [Oseltamivir], the LC retention time is 11.5 min. The same measure for `CNC(=O)ON=C(SC)C(=O)N(C)C` [Oxamyl]: 7.21 min.

The values above are taken from the RepoRT retention time repository (doi:10.1021/acs.analchem.1c00972).
